In PubChem BioAssay (NCI):
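Each compound was tested at five concentrations against cells in 96-well plates for 48 hours. Abbreviation: GI50, concentration required for 50% inhibition of growth. TGI is the concentration that stops growth completely.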

Legend:
Experiment in all cases: NCI anticancer screen, dose series, 48 h
SF-295 CNS = test system: SF-295 CNS
MOLT-4 leukemia = test system: MOLT-4 leukemia
MDA-MB-468 breast = test system: MDA-MB-468 breast
DU-145 prostate = test system: DU-145 prostate
HOP-92 NSCLC = test system: HOP-92 NSCLC
786-0 renal = test system: 786-0 renal
PC-3 prostate = test system: PC-3 prostate
BT-549 breast = test system: BT-549 breast
TK-10 renal = test system: TK-10 renal
NCI-H460 lung = test system: NCI-H460 lung
MDA-MB-435 = test system: MDA-MB-435
SK-MEL-2 melanoma = test system: SK-MEL-2 melanoma
IGROV1 ovarian = test system: IGROV1 ovarian
ACHN renal = test system: ACHN renal
SF-539 CNS = test system: SF-539 CNS
SR leukemia = test system: SR leukemia
CCRF-CEM leukemia = test system: CCRF-CEM leukemia
NCI-H226 lung = test system: NCI-H226 lung
SN12C renal = test system: SN12C renal
SK-OV-3 ovarian = test system: SK-OV-3 ovarian
LOX IMVI melanoma = test system: LOX IMVI melanoma
SW-620 colon = test system: SW-620 colon
SK-MEL-28 melanoma = test system: SK-MEL-28 melanoma
HT29 colon = test system: HT29 colon
SK-MEL-5 melanoma = test system: SK-MEL-5 melanoma
OVCAR-5 ovarian = test system: OVCAR-5 ovarian
SNB-75 CNS = test system: SNB-75 CNS
A498 renal = test system: A498 renal
KM12 colon = test system: KM12 colon

C=C(C)[C@@H]1CC[C@]2(COP(=O)(OCC)OCC)CC[C@]3(C)[C@H](CC[C@@H]4[C@@](C)(CCCN)[C@H](C(=C)C)CC[C@]43C)[C@@H]12
GI50 (SF-295 CNS): 4.43 µM
TGI (SF-295 CNS): 17.6 µM
GI50 (MOLT-4 leukemia): 3.27 µM
TGI (MOLT-4 leukemia): 16.1 µM
GI50 (MDA-MB-468 breast): 2.56 µM
TGI (MDA-MB-468 breast): 11.3 µM
GI50 (DU-145 prostate): 10.9 µM
TGI (DU-145 prostate): 23.8 µM
GI50 (HOP-92 NSCLC): 2.63 µM
TGI (HOP-92 NSCLC): 16.2 µM
GI50 (786-0 renal): 5.04 µM
TGI (786-0 renal): 19.9 µM
GI50 (PC-3 prostate): 2.24 µM
TGI (PC-3 prostate): 11.4 µM
GI50 (BT-549 breast): 9.88 µM
TGI (BT-549 breast): 22.2 µM
GI50 (TK-10 renal): 12 µM
TGI (TK-10 renal): 25.2 µM
GI50 (NCI-H460 lung): 3.43 µM
TGI (NCI-H460 lung): 14.2 µM
GI50 (MDA-MB-435): 4.07 µM
TGI (MDA-MB-435): 17.4 µM
GI50 (SK-MEL-2 melanoma): 9.64 µM
TGI (SK-MEL-2 melanoma): 22.6 µM
GI50 (IGROV1 ovarian): 11.4 µM
TGI (IGROV1 ovarian): 23.7 µM
GI50 (ACHN renal): 5.54 µM
TGI (ACHN renal): 18.1 µM
GI50 (SF-539 CNS): 10.4 µM
TGI (SF-539 CNS): 22.1 µM
GI50 (SR leukemia): 3.66 µM
TGI (SR leukemia): > 100 µM
GI50 (CCRF-CEM leukemia): 2.81 µM
TGI (CCRF-CEM leukemia): 11.3 µM
GI50 (NCI-H226 lung): 5.64 µM
TGI (NCI-H226 lung): 22 µM
GI50 (SN12C renal): 4.37 µM
TGI (SN12C renal): 16.6 µM
GI50 (SK-OV-3 ovarian): 13.6 µM
TGI (SK-OV-3 ovarian): 28.7 µM
GI50 (LOX IMVI melanoma): 4.77 µM
TGI (LOX IMVI melanoma): 17.2 µM
GI50 (SW-620 colon): 3.49 µM
TGI (SW-620 colon): 15.1 µM
GI50 (SK-MEL-28 melanoma): 7.84 µM
TGI (SK-MEL-28 melanoma): 20.2 µM
GI50 (HT29 colon): 4.03 µM
TGI (HT29 colon): 16.2 µM
GI50 (SK-MEL-5 melanoma): 3.47 µM
TGI (SK-MEL-5 melanoma): 12.9 µM
GI50 (OVCAR-5 ovarian): 10.9 µM
TGI (OVCAR-5 ovarian): 22.8 µM
GI50 (SNB-75 CNS): 5.01 µM
TGI (SNB-75 CNS): 20 µM
GI50 (A498 renal): 12.5 µM
TGI (A498 renal): 25.2 µM
GI50 (KM12 colon): 4.73 µM
TGI (KM12 colon): 17.8 µM
